Source: ChEMBL document CHEMBL5625198, “Design, synthesis and biological evaluation of novel 3-hydroxypyridin-4(1H)-ones based hybrids as Pseudomonas aeruginosa biofilm inhibitors” (Eur J Med Chem, 2023)
Active and inactive are the calls of the source. No cut-off for these calls is given here.

Tests used:
[1] = system: Pseudomonas aeruginosa; test: Antibiofilm activity against wild-type Pseudomonas aeruginosa PAO1 assessed as inhibition rate at 10 uM incubated for 24 hrs by crystal violet staining based assay relative to control; assay type: functional
[2] = system: Pseudomonas aeruginosa; test: Antibacterial activity against wild-type Pseudomonas aeruginosa PAO1 assessed as bacterial growth inhibition by CLSI based broth-microdilution method; assay type: functional
[3] = system: Pseudomonas aeruginosa; test: Antibiofilm activity against wild-type Pseudomonas aeruginosa PAO1 incubated for 24 hrs by crystal violet staining based assay; assay type: functional, organism-based
[4] = system: Pseudomonas aeruginosa; test: Antibiofilm activity against wild-type Pseudomonas aeruginosa PAO1 at 2.5 uM incubated for 24 hrs by crystal violet staining based assay relative to control; assay type: functional
[5] = system: Pseudomonas aeruginosa; test: Antibiofilm activity against wild-type Pseudomonas aeruginosa PAO1 at 20 uM incubated for 24 hrs by confocal laser scanning microscopy; assay type: functional, organism-based
[6] = system: Pseudomonas aeruginosa; test: Anti-virulence effect in Pseudomonas aeruginosa PAO1 assessed as decrease in elastase level incubated for 24 hrs by fluorescence based assay; assay type: functional, organism-based; details: dose 1.25-20 µM
[7] = system: Pseudomonas aeruginosa; test: Anti-virulence effect in Pseudomonas aeruginosa PAO1 assessed as decrease in pyocyanin level incubated for 48 hrs by absorbance based assay; assay type: functional, organism-based; details: dose 1.25-20 µM
[8] = system: Pseudomonas aeruginosa; test: Effect on rhamnolipid level in Pseudomonas aeruginosa PAO1 at 1.25 to 20 uM incubated for 24 hrs by absorbance based assay; assay type: functional, organism-based; details: dose 1.25-20 µM
[9] = Inhibition of quorum sensing system in Pseudomonas aeruginosa PAO1 harboring lasB-gfp assessed as decrease in lasB expression measured for 12 hrs by fluorescence based assay; details: dose 1.25-20 µM
[10] = Inhibition of quorum sensing system in Pseudomonas aeruginosa PAO1 harboring pqsA-gfp assessed as decrease in pqsA expression measured for 12 hrs by fluorescence based assay; details: dose 1.25-20 µM
[11] = system: Pseudomonas aeruginosa; test: Effect on rhlA expression in Pseudomonas aeruginosa PAO1 harboring rhlA-gfp at 1.25 to 20 uM measured for 12 hrs by fluorescence based assay; assay type: functional; details: dose 1.25-20 µM
[12] = system: Pseudomonas aeruginosa; test: Inhibition of swarming motility in Pseudomonas aeruginosa PAO1 incubated for 16 hrs; assay type: functional, organism-based; details: dose 1.25-20 µM
[13] = Cytotoxicity against African green monkey Vero cells assessed as cell viability at 3.125 to 50 uM incubated for 24 hrs by MTT assay; assay type: toxicity, cell-based; details: chlorocebus sabaeus, dose 3.125-50 µM
[14] = system: Vero; test: Anti-virulence effect in African green monkey Vero cells infected with Pseudomonas aeruginosa assessed as increase in cell survival incubated for 24 hrs by MTT assay; assay type: functional, cell-based; details: Chlorocebus sabaeus, dose <= 20.0 µM
[15] = Anti-virulence effect in African green monkey Vero cells infected with Pseudomonas aeruginosa assessed as cell survival at 20 uM incubated for 24 hrs by MTT assay (reference value: 37.7 %); assay type: functional; details: Chlorocebus sabaeus, read-out: Activity
[16] = system: Pseudomonas aeruginosa; test: Synergistic activity against Pseudomonas aeruginosa PAO1 assessed as reduction in ciprofloxacin MIC […] at 20 uM relative to control; assay type: functional; design: scale not given: the % may be the effect or the level left

Row | SMILES | inhibition at 10 µM [1] [%] | MIC [2] [µM] | also measured
1 | Cc1cc(=O)c(O)c(CNC(=O)CSc2nc3ccc(F)cc3s2)n1C | 40.4 | > 128 | 
2 | Cc1cc(C)nc(SCC(=O)NCc2c(O)c(=O)cc(C)n2C)n1 | 22.6 | > 128 | 
3 | COc1ccc2sc(SCC(=O)NCc3c(O)c(=O)cc(C)n3C)nc2c1 | 7.27 | > 128 | 
4 | Cc1cc(=O)c(O)c(CNC(=O)CSc2nc3cc(Cl)ccc3[nH]2)n1C |  | > 128 | 
5 | Cc1cc(=O)c(O)c(CNC(=O)CSc2nc3cc(OC(F)F)ccc3[nH]2)n1C | 17.6 | > 128 | 
6 | Cc1cccc2sc(SCC(=O)NCc3c(O)c(=O)cc(C)n3C)nc12 | 20.8 | > 128 | 
7 | Cc1cc(=O)c(O)c(CNC(=O)CSc2nc3cc([N+](=O)[O-])ccc3s2)n1C | 10.1 | > 128 | 
8 | Cc1cc(=O)c(O)c(CNC(=O)CSc2ccccn2)n1C |  | > 128 | 
9 | Cc1nnc(SCC(=O)NCc2c(O)c(=O)cc(C)n2C)s1 | -10.2 | > 128 | 
10 | Cc1ccc2[nH]c(SCC(=O)NCc3cc(=O)c(O)cn3C)nc2c1 | 3.29 | > 128 | 
11 | Cc1cc(=O)c(O)c(CNC(=O)CSc2nc3c([N+](=O)[O-])cccc3o2)n1C | 30.6 | > 128 | 
12 | Cc1ccc2oc(SCC(=O)NCc3c(O)c(=O)cc(C)n3C)nc2c1 | 45.8 | > 128 | 
13 | Cc1cc(=O)c(O)c(CNC(=O)CSc2nc3cc(C#N)ccc3[nH]2)n1C | 41.3 | > 128 | 
14 | Cn1cc(O)c(=O)cc1CNC(=O)CSc1nc2cc([N+](=O)[O-])ccc2[nH]1 | -15.2 | > 128 | 
15 | Cc1cc(=O)c(O)c(CNC(=O)CSc2nc3ccc([N+](=O)[O-])cc3s2)n1C | 45.5 | > 128 | 
16 | Cc1cc(=O)c(O)c(CNC(=O)CSc2nncs2)n1C | 16.9 | > 128 | 
17 | Cc1cc(=O)c(O)c(CNC(=O)CSc2ccncc2)n1C |  | > 128 | 
18 | Cn1cc(O)c(=O)cc1CNC(=O)CSc1nc2ccccc2[nH]1 |  | > 128 | 
19 | Cc1cc(=O)c(O)c(CNC(=O)CSc2ccc([N+](=O)[O-])cc2)n1C | 31.9 | > 128 | 
20 | Cn1cc(O)c(=O)cc1CNC(=O)CSc1nc2ccc([N+](=O)[O-])cc2s1 | 29.1 | > 128 | 
21 | CCOc1ccc2[nH]c(SCC(=O)NCc3c(O)c(=O)cc(C)n3C)nc2c1 | -17.5 | > 128 | 
22 | Cc1cc(=O)c(O)c(CNC(=O)CSc2nc3cc([N+](=O)[O-])ccc3[nH]2)n1C | 51.5 | > 128 | IC50 ([3]; PAO1, 24 h): 10.6 µM; Activity ([3]; dose 1.25-20 µM): Dose-Dependent Effect; inhibition at 2.5 µM [4]: > 30%; Activity [5]: Active; Activity [6]: Dose-Dependent Effect; Activity [7]: Dose-Dependent Effect; Activity [8]: inactive; inhibition [9]: Dose-Dependent Effect; inhibition [10]: Dose-Dependent Effect; Activity [11]: inactive; inhibition [12]: Dose-Dependent Effect; Activity [13]: Non-Toxic; Activity [14]: Dose-Dependent Effect; viability at 20 µM [15]: 71.5%; Activity [16]: ~50%
23 | Cc1ccc2nc(SCC(=O)NCc3c(O)c(=O)cc(C)n3C)sc2c1 | 31.2 | > 128 | 
24 | Cc1cc(=O)c(O)c(CNC(=O)CSc2nc3c(C(C)(C)C)cccc3o2)n1C | 19.4 | > 128 | 

Row | SMILES | inhibition at 10 µM [1] [%] | MIC [2] [µM] | also measured
25 | Cc1cc(=O)c(O)c(CNC(=O)CSc2nc3cc(C(F)(F)F)ccc3o2)n1C | 39.5 | > 128 | 
26 | COc1ccc(SCC(=O)NCc2c(O)c(=O)cc(C)n2C)cc1 | -13.6 | > 128 | 
27 | Cc1cccc2oc(SCC(=O)NCc3c(O)c(=O)cc(C)n3C)nc12 |  | > 128 | 
28 | COc1ccc2oc(SCC(=O)NCc3c(O)c(=O)cc(C)n3C)nc2c1 | 19.6 | > 128 | 
29 | Cc1cc(=O)c(O)c(CNC(=O)CSc2nc3c(F)cccc3o2)n1C | 27.6 | > 128 | 
30 | Cc1cc(=O)c(O)c(CNC(=O)CSc2nccs2)n1C | 46.4 | > 128 | 
31 | COc1ccc2nc(SCC(=O)NCc3c(O)c(=O)cc(C)n3C)sc2c1 | -22.4 | > 128 | 
32 | Cc1cc(=O)c(O)c(CNC(=O)CSc2nc3cc(Cl)ccc3o2)n1C | 41.7 | > 128 | 
33 | Cc1ccc2[nH]c(SCC(=O)NCc3c(O)c(=O)cc(C)n3C)nc2c1 | 7.4 | > 128 | 
34 | Cc1cc(=O)c(O)c(CNC(=O)CSc2nc3cc(Cl)ccc3s2)n1C | 5.12 | > 128 | 
35 | Cc1cc(=O)c(O)c(CNC(=O)CSc2nc3ccccc3o2)n1C | 26.2 | > 128 | 
36 | Cc1cc(=O)c(O)c(CNC(=O)CSc2ncccn2)n1C | 7.18 | > 128 | 
37 | Cn1cc(O)c(=O)cc1CNC(=O)CSc1nc2ccccc2s1 | -5.24 | > 128 | 
38 | Cc1cc(=O)c(O)c(CNC(=O)CSc2nc3cc(F)ccc3[nH]2)n1C | 34.7 | > 128 | 
39 | Cc1cc(=O)c(O)c(CNC(=O)CSc2nc3cc(C(F)(F)F)ccc3[nH]2)n1C |  | > 128 | 
40 | Cc1cc(=O)c(O)c(CNC(=O)CSc2nc3ccccc3[nH]2)n1C | 44.6 | > 128 | 
41 | Cc1cc(=O)c(O)c(CNC(=O)CSc2nc3cc(F)ccc3s2)n1C | 5 | > 128 | 
42 | COc1ccc2[nH]c(SCC(=O)NCc3c(O)c(=O)cc(C)n3C)nc2c1 | 16.3 | > 128 | 
43 | Cc1cc(=O)c(O)c(CNC(=O)CSc2nc3c(C(C)(C)C)cccc3[nH]2)n1C | 14.5 | > 128 | 
44 | Cc1cc(=O)c(O)c(CNC(=O)CSc2nc3ccccc3s2)n1C | 22.1 | > 128 | 
45 | Cc1cc(=O)c(O)c(CNC(=O)CSc2nccn2C)n1C | 30 | > 128 | 
46 | Cc1cc(=O)c(O)c(CNC(=O)CSc2nc3ccc(F)cc3o2)n1C | 25.4 | > 128 | 
47 | Cc1cc(=O)c(O)c(CNC(=O)CSc2ncc[nH]2)n1C | 46.1 | > 128 | 
